These results are taken from ChEMBL document CHEMBL5042489, “Inhibitors of the Hippo Pathway Kinases STK3/MST2 and STK4/MST1 Have Utility for the Treatment of Acute Myeloid Leukemia” (J Med Chem, 2022).

One data set concerns SKNO-1. The data set is described as follows: Antiproliferation activity against human SKNO-1 cells incubated for 72 hrs by celltiter-glo assay. It is filed as functional, cell-based.
Data set [1] addresses T1, Serine/threonine-protein kinase RIO3 (Homo sapiens) (UniProt O14730).
T1 sequence (whole entry): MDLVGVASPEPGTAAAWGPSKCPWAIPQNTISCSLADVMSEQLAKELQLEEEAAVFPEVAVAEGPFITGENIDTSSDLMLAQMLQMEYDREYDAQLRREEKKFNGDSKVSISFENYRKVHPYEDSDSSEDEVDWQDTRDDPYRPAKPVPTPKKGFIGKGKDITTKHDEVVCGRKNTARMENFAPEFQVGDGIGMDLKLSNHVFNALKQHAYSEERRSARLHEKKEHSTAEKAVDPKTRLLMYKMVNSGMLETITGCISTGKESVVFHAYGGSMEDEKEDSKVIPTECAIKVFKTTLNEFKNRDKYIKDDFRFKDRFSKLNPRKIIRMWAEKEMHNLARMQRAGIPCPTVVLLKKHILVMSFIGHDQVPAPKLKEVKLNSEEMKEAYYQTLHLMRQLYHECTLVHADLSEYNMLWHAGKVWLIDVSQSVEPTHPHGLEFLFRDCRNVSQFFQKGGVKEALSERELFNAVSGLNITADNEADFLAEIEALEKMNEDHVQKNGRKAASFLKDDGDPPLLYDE
The data set is described as follows: Inhibition of wild type full length human RIOK3 (M1 to E519 residues) expressed in bacterial expression system by KdELECT assay.

Data set [2] concerns the target T2, Serine/threonine-protein kinase STK11 (Homo sapiens) (UniProt Q15831).
T2 sequence (whole entry): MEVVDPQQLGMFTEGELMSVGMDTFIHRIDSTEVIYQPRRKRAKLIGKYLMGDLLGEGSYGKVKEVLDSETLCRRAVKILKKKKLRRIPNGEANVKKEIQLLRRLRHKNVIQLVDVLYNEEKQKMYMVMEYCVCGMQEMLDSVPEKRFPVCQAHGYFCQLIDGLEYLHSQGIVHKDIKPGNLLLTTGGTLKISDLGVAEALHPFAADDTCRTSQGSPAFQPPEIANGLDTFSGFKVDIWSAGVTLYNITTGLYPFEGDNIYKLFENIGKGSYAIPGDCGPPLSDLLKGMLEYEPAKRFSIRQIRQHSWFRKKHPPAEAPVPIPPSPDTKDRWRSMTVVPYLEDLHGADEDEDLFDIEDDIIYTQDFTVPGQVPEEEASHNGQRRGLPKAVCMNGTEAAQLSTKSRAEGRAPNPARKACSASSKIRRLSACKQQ
The data set is described as follows: Inhibition of LKB1 (unknown origin) by NanoBRET intracellular kinase assay. It counts as cell-based. The note with it: time 2.0 hrs.

The next data set relates to OCI-AML-3. In words: Antiproliferation activity against human OCI-AML-3 cells incubated for 72 hrs by celltiter-glo assay. It counts as functional, cell-based.
In data set [3] the target is T3, Serine/threonine-protein kinase 3 (Homo sapiens, UniProt Q13188).
T3 sequence (Q13188 whole entry): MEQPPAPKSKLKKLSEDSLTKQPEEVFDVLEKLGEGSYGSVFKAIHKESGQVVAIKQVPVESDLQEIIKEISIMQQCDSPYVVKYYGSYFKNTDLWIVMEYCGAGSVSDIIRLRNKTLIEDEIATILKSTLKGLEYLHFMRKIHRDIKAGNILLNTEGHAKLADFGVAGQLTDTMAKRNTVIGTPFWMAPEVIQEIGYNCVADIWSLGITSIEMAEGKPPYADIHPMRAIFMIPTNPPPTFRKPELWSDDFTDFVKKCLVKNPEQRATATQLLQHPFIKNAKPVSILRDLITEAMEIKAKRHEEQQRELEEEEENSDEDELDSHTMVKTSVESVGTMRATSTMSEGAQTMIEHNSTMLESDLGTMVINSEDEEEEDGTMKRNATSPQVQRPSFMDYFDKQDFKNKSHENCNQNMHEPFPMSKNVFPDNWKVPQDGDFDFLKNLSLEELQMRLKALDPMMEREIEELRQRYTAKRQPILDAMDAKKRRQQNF
Description: Displacement of K5 tracer from full length C-terminal NanoLuc fused human STK3 expressed in HEK293T cells incubated for 2 hrs by NanoBRET assay

Data set [4] is described as follows: Tmax in C57BL/6 mouse at 10 mg/kg, ip measured upto 24 hrs by LC-MS/MS analysis. It counts as ADME, organism-based. The following applies: in vivo.
The nature of data set [5]: Cmax in C57BL/6 mouse at 10 mg/kg, ip measured upto 24 hrs by LC-MS/MS analysis. It is filed as ADME, organism-based. Also on record: route intraperitoneal, dose 10 mg/kg, time <=24. The following applies: in vivo.
The nature of data set [6]: Drug concentration in C57BL/6 mouse plasma at 20 mg/kg, ip measured after 30 mins by LC-MS/MS analysis. It counts as ADME, organism-based.
Another data set concerns Mus musculus. In words: In vivo inhibition of STK3/4 in C57BL/6 mouse assessed as decrease in Thr35phosphorylated-MOB1 protein level in liver at 10 mg/kg, ip administered for 1 hr by Western blotting analysis. It counts as functional, organism-based.
The nature of data set [7]: Half life in C57BL/6 mouse at 10 mg/kg, ip measured upto 24 hrs by LC-MS/MS analysis. It counts as ADME, organism-based. The note with it: in vivo.
In data set [8] the target is T4, Serine/threonine-protein kinase 4 (Homo sapiens, UniProt Q13043).
T4 sequence (Q13043 whole entry): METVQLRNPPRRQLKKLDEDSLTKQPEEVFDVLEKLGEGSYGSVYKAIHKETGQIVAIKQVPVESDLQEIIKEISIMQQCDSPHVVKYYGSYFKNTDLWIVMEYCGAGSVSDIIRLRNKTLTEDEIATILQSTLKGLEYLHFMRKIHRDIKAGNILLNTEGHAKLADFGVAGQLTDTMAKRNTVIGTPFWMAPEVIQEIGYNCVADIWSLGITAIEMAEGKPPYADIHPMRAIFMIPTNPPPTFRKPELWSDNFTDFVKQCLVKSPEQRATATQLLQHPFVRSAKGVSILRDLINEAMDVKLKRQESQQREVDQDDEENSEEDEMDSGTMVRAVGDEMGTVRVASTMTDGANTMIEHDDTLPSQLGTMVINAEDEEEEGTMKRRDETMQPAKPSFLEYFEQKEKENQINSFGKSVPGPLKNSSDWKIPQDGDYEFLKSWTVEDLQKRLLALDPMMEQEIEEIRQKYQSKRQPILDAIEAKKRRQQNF

The target of data set [9] is BMP-2-inducible protein kinase (Homo sapiens) (UniProt Q9NSY1). The data set is described as follows: Inhibition of BMP2K (unknown origin) by NanoBRET intracellular kinase assay. It counts as cell-based. The note with it: time 2.0 hrs.
Data set [10] deals with MOLM-13. In words: Antiproliferation activity against human MOLM-13 cells incubated for 72 hrs by celltiter-glo assay. It counts as functional, cell-based.
For data set [11], the target named is T4, Serine/threonine-protein kinase 4. The source holds these as a separate data set.
Description: Displacement of K5 tracer from full length C-terminal NanoLuc fused human STK4 expressed in HEK293T cells incubated for 2 hrs by NanoBRET assay
In data set [12] the target is T5, Serine/threonine-protein kinase 3 (Homo sapiens) (UniProt Q13188).
T5 sequence (whole entry): T3 sequence (Q13188 whole entry)
In words: Inhibition of STK3 in HEK293 cells assessed as increase in YAP/TAZ-TEAD activity at 10 uM incubated for 48 hrs by Dual-Glo luciferase assay. It is filed as cell-based.

Another data set deals with Kasumi 1. The data set is described as follows: Antiproliferation activity against human Kasumi 1 cells incubated for 72 hrs by celltiter-glo assay. It counts as functional, cell-based.
Data set [13] concerns the target Leucine-rich repeat serine/threonine-protein kinase 2 (Homo sapiens, UniProt Q5S007). The data set is described as follows: Displacement of K5 tracer from full length C-terminal NanoLuc fused human LRRK2 expressed in HEK293T cells incubated for 2 hrs by NanoBRET assay. It is filed as cell-based.
Data set [14] concerns MOLM-13. In words: Inhibition of MOB1 phosphorylation in human MOLM-13 cells assessed as decrease in pMOB1 activity at 1 uM preincubated for 4 hrs followed by H2O2 addition for 2 hrs by Western blotting analysis. The note with it: time 6.0 hrs. It counts as cell-based.
For data set [15], the target named is Protein kinase C theta type (Homo sapiens) (UniProt Q04759). The data set is described as follows: Inhibition of wild type partial length human PRKCQ (L350 to S706 residues) expressed in bacterial expression system by KdELECT assay.
Data set [16] addresses T3, Serine/threonine-protein kinase 3. The source holds these as a separate data set.
The test system of another data set is THP-1. In words: Antiproliferation activity against human THP-1 cells incubated for 72 hrs by celltiter-glo assay. It is filed as functional, cell-based.
Data set [17] is described as follows: AUC (0 to t) in C57BL/6 mouse at 10 mg/kg, ip measured upto 24 hrs by LC-MS/MS analysis. Also on record: dose 10 mg/kg, time <=24. The following applies: in vivo. It is filed as ADME, organism-based.
For another data set, the system named is MV4-11. In words: Antiproliferation activity against human MV4-11 cells incubated for 72 hrs by celltiter-glo assay. It counts as functional, cell-based.
The nature of data set [18]: Permeability in human Caco-2 cells. It counts as ADME, cell-based.
Data set [19] concerns the target T5, Serine/threonine-protein kinase 3 (Homo sapiens). The data set is described as follows: Inhibition of recombinant N-terminal His6-tagged human STK3 (18 to 311 residues) expressed in Escherichia coli assessed as melting temperature at 20 uM by thermal shift assay.
The nature of data set [20]: Kinetic solubility of compound in PBS at pH 7.4. It is filed as physicochemical. The following applies: buffer.
Data set [21] has as its target T5, Serine/threonine-protein kinase 3 (Homo sapiens). In words: Inhibition of STK3 (unknown origin) by KdELECT assay.
Data set [22] can be described thus: Inhibition of MOB1 phosphorylation in human MOLM-13 cells assessed as decrease in pMOB1 activity preincubated for 4 hrs followed by H2O2 addition for 2 hrs by Western blotting analysis. It is filed as cell-based.
A short description of data set [23]: Drug concentration in C57BL/6 mouse liver at 10 mg/kg, ip administered for 2 hrs. It counts as ADME, organism-based. The note with it: read-out: Ct.
A short description of data set [24]: Drug concentration in C57BL/6 mouse liver at 10 mg/kg, ip administered for 1 hr. It is filed as ADME, organism-based. The following applies: read-out: Ct.
For data set [25], the target named is T6, Serine/threonine-protein kinase 4 (Homo sapiens) (UniProt Q13043).
T6 sequence (whole entry): T4 sequence (Q13043 whole entry)
The note with it: dose 20.0 µM.
Description: Inhibition of recombinant N-terminal His6-tagged human STK4 (43 to 431 residues) expressed in Escherichia coli assessed as melting temperature at 20 uM by thermal shift assay (Rvb = 55 degreeC)

The nature of data set [26]: Drug concentration in C57BL/6 mouse liver at 10 mg/kg, ip administered for 3 hrs. The following applies: read-out: Ct. It is filed as ADME, organism-based.

Calls of active or inactive are those of the source. No cut-off for these calls is given here.

Chain of Leucine-rich repeat serine/threonine-protein kinase 2 (Q5S007 whole entry, the tested form may be a part): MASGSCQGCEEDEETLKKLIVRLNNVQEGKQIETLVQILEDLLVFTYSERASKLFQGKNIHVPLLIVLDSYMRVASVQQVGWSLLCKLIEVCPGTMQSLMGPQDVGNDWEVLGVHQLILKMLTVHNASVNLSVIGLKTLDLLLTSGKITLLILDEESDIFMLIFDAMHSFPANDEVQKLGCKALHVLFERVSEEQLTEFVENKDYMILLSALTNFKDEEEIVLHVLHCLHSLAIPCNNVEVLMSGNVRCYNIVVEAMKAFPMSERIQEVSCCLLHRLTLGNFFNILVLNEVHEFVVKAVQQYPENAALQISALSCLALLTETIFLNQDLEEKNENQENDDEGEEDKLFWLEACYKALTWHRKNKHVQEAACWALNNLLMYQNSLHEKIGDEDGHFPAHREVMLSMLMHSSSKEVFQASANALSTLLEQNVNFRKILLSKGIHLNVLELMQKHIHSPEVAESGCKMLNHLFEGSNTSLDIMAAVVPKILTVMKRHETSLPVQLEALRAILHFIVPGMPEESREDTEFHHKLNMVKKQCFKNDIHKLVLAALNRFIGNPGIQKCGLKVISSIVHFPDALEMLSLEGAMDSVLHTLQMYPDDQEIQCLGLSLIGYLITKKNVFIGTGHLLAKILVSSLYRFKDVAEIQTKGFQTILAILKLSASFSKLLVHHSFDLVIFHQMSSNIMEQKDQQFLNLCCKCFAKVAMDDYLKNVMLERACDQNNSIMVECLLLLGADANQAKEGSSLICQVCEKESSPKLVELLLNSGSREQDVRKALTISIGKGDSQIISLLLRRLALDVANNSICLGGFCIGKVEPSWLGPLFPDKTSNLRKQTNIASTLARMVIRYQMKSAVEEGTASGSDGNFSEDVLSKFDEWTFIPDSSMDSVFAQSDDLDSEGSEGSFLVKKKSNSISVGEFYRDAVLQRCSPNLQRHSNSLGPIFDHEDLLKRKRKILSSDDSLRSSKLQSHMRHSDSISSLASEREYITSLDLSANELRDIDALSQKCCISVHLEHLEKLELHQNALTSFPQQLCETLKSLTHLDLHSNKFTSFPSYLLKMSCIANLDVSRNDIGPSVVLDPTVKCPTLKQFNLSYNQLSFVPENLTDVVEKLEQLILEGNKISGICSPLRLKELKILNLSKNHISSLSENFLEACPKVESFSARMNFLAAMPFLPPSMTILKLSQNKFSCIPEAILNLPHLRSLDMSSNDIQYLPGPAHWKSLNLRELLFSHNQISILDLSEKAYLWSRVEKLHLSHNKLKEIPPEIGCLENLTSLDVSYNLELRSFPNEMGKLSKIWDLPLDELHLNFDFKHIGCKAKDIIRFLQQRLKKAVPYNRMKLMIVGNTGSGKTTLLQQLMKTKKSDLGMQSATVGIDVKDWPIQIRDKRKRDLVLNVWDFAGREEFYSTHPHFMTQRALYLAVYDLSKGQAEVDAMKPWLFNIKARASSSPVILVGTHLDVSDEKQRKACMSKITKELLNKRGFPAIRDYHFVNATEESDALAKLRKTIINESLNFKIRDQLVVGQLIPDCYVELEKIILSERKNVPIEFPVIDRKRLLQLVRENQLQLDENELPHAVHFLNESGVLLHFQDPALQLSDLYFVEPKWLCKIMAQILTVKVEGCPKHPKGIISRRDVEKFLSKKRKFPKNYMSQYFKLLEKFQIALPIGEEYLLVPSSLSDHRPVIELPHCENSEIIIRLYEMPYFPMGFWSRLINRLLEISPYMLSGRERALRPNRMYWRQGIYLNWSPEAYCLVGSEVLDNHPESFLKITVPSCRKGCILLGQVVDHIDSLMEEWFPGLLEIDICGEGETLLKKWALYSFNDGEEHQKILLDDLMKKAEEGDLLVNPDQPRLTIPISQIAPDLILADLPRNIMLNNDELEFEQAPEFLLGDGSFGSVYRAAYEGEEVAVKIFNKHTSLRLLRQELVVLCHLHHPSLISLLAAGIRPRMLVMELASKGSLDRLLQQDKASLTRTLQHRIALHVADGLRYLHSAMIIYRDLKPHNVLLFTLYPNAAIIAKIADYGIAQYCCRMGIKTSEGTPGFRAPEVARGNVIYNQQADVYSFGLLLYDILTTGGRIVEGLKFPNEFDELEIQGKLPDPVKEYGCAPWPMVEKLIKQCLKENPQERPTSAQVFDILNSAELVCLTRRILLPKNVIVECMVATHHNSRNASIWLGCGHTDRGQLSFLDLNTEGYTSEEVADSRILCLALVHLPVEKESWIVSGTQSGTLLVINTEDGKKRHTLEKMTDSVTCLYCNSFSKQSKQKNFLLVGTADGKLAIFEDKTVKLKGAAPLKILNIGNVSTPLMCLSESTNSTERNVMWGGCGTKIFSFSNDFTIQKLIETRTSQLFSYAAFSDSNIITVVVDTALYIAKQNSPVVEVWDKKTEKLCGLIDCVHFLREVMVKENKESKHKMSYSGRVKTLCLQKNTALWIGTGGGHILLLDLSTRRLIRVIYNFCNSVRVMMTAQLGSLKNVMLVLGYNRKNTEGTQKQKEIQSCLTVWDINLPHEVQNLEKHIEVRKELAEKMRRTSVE
Chain of BMP-2-inducible protein kinase (Homo sapiens) (Q9NSY1 whole entry, looked up): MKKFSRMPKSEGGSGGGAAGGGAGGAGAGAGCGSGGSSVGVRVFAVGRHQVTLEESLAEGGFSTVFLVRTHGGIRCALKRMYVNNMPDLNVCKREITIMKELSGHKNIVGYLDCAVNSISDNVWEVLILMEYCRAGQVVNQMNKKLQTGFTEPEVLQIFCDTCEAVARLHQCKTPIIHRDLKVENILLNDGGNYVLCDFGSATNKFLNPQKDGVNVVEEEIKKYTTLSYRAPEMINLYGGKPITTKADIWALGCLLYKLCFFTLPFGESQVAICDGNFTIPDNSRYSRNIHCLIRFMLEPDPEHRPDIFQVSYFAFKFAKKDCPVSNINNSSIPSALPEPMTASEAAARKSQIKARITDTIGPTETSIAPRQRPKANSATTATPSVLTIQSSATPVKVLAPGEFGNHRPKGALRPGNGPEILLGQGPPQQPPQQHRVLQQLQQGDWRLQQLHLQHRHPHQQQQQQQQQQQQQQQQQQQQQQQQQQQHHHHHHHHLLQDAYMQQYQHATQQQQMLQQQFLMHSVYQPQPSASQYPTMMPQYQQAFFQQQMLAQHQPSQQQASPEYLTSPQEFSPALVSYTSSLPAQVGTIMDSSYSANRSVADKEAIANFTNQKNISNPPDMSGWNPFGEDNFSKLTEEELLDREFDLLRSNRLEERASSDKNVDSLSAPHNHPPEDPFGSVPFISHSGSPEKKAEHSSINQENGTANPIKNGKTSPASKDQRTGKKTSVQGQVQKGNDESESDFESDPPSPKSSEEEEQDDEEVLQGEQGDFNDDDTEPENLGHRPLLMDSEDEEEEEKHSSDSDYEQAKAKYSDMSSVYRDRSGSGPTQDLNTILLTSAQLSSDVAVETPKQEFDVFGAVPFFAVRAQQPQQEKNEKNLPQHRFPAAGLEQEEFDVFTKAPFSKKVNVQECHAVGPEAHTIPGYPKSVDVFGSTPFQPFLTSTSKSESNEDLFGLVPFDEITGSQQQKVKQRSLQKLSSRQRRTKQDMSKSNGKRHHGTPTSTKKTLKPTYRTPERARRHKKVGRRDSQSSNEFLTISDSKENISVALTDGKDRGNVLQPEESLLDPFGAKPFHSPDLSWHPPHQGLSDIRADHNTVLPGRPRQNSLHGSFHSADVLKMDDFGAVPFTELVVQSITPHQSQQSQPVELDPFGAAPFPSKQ
Chain of Protein kinase C theta type (Homo sapiens) (Q04759 whole entry, looked up, the tested form may be a part): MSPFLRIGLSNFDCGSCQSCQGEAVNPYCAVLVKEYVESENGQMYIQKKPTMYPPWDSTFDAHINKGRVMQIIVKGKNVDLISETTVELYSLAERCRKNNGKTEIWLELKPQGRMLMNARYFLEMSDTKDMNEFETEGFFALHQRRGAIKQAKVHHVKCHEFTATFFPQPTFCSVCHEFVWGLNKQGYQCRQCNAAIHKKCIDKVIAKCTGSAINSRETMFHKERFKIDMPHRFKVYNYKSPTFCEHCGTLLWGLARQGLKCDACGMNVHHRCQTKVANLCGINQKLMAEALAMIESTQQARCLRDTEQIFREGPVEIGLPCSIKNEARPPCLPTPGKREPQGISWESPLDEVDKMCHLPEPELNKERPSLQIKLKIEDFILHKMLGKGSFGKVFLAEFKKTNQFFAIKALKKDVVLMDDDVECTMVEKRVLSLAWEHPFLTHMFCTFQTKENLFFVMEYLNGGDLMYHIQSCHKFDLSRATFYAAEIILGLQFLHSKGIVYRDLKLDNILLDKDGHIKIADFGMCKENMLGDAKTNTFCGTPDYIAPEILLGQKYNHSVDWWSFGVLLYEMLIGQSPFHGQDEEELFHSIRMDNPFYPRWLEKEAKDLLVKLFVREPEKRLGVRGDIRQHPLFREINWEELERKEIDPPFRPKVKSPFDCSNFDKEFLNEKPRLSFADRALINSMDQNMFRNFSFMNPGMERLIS

As for `OC1CCN(c2ncnc3[nH]cc(-c4cccc(Cl)c4)c23)CC1`, the Activity entry with SKNO-1, in the data set on OCI-AML-3, with MOLM-13 [10], in the data set with Kasumi 1, in the data set with THP-1 and in the data set with MV4-11 was “Dose-Dependent Effect” in each case. The inhibition entry (in data set [1]; with Mus musculus; in [12]; with MOLM-13 [14]; in data set [15]; in [21]) was “Active” each time. Also, the inhibition entry in [2] and in [9] was “inactive” in each case. In addition, the IC50 in data set [3] was 0.433 µM; in data set [8], 0.08 µM; in [11] it was 0.25 µM; in data set [13] it was 1.34 µM; in data set [16], 0.127 µM. The time of peak concentration (Tmax) in data set [4] was 15 min. Also, in [5], the highest concentration (Cmax) amounted to 5.8 µM. This compound showed a concentration at 0.5 h in data set [6] of 11.6 µM. The same compound displayed a t1/2 in data set [7] of 594 min. The AUCt in [17] came to 4.3 µM·h. For the same compound, the permeability result in [18] is reported as “Permeable”. The ΔTm in data set [19] is > 5.2 °C. In data set [20], the Kinetic_solubility was 189 µM.
For the compound `CC(=O)NC1CCN(c2ncnc3[nH]cc(-c4cccc(Cl)c4)c23)CC1`, the Activity result in the data set with SKNO-1, with OCI-AML-3, in the data set on Kasumi 1 and with THP-1 was “Dose-Dependent Effect” in each case. Besides, the inhibition entry (in [1]; with Mus musculus; in data set [15]; in data set [21]) was “Active” in each case. The inhibition entry in data set [2] and in [9] was “inactive” each time. Further, the IC50 in [3] was 0.139 µM; in [8] it was 0.026 µM; in the data set with MOLM-13 [10] (MOLM-13, 72 h), 5.8 µM; in data set [11] it was 0.122 µM; in data set [22] it was 0.413 µM; in [13], 1.39 µM. Also, the concentration for half-maximal inhibition (IC50) turned out to be 0.036 µM in data set [16] and 3.7 µM with MV4-11 (MV4-11, 72 h). For the same compound, the Tmax in [4] is 15 min. Further, the Cmax in data set [5] worked out at 11.8 µM. This compound showed a t1/2 in data set [7] of 318 min. The compound further registered an AUCt in [17] of 8.1 µM·h.
Take `NC(=O)c1cccc(-c2c[nH]c3ncnc(N4CCOCC4)c23)c1`: the figures for the IC50 in data set [3], in [13] and in data set [16] were 0.303 µM, 2.36 µM and 0.233 µM, respectively. Besides, in data set [4], the time to peak (Tmax) was found to be 30 min. In addition, in data set [23], the concentration at 2 h is 2.5 µM. In addition, the peak level in data set [5] (Cmax) was 11.9 µM. In data set [6], this compound showed a concentration at 0.5 h of 15.9 µM. Also, the inhibition entry (with Mus musculus; in [12]) was “Active” throughout. The t1/2 in [7] was 42 min. The same compound gave an AUCt in data set [17] of 9.5 µM·h. In addition, in data set [24], the concentration at 1 h amounted to 28 µM. Moreover, the Tm in data set [25] was 63.3 °C. In addition, the concentration at 3 h in data set [26] came out at 1.2 µM.
